Laboratory results taken from US12527757B2, “Nanoemulsion of 18BETA-glycyrrhetinic acid” (ATSO CORPORATE AFFAIRS, S.A. DE C.V., priority 2019, dated 2026).
Where two headings read alike, the source gives them in different places.

Key:
HeLa cells [1] = experiment: Cell survival inhibition assay, HeLa; assay type: cell-based; conditions: HeLa (HPV-18), 24 hours, 10-100 μM
Protocol: (§1) In this sense, a cell survival inhibition assay of different cell lines was carried out when exposed for hours 24 to one of the two drugs from FIG. 1. In this experiment, four cell lines were tested: HeLa, which are cell lines representative of cancer and HPV-18 infection, SiHa which are cells representative of cervical cancer with HPV-16 infection, C-33A which are cells representative of HPV-negative cervical carcinoma, and HaCaT, which are cancer and infection negative cells. The experiment consisted of exposing cells of the different cell lines to different concentrations of both drugs for 24 hours (10-100 μM) going in steps of 10 μM each.

SiHa cells = experiment: Cell survival inhibition assay, SiHa; assay type: cell-based; conditions: SiHa (HPV-16), 24 hours, 10-100 μM
Protocol: as §1

C-33A cells = experiment: Cell survival inhibition assay, C-33A; assay type: cell-based; conditions: C-33A (HPV-negative cervical carcinoma), 24 hours, 10-100 μM
Protocol: as §1

HeLa cells [2] = experiment: Alkaline comet assay (single cell electrophoresis), HeLa; assay type: cell-based; conditions: HeLa cancer cells
Protocol: (§2) This difference in drug performance can be explained by the difference in their mechanisms of action. […] The comet assay is an experiment that allows to see if the drug has a cytotoxic effect related to DNA fragmentation of the cells. This difference is visualized by the size of the “tails” of the “comets”, which is the fragmented DNA from the cells under study.
(§3) An analysis with a Wilcoxon test was performed to verify whether the means in the percentage of DNA in the comet tails of the different cell lines differ.
(§4) FIG. 2 depicts representative tail-DNA percentage data. (A) Microphotographs of the alkaline comet assay showing representative images of the CC cell lines and their negative control with their 18β and GA treatments of HeLa (HPV 18 cervical cancer) and HaCaT (HPV negative immortalized keratinocyte) (B) Comet assay data plot of Tail-DNA percentage **P<0.43 for HaCaT and P<2^−16. Larger comets for 18β treatment are observed.

HaCaT cells = experiment: Alkaline comet assay (single cell electrophoresis), HaCaT; assay type: cell-based
Protocol: as §2, §3, §4

Hepatitis C virus (HCV) = conditions: by preventing the release of infectious viral particles; cited from earlier work
[3] = cited from earlier work
[4] = cited from earlier work; remark: listed apart in the source
Rotavirus = conditions: infected cultures; cited from earlier work

Row | DNA fragmentation (comet tails) (HaCaT cells; HaCaT healthy cells) | SMILES | inhibition of cell survival (HeLa cells [1]) | inhibition of cell survival (SiHa cells) | inhibition of cell survival (C-33A cells) | DNA fragmentation (comet tails) (HeLa cells [2]) | reduction of Hepatitis C virus (HCV) titers (Hepatitis C virus (HCV)) | DNA fragmentation (comet tails) (HaCaT cells) | log P [3] | solubility in water [4] | interference with Rotavirus replication (Rotavirus)
1 | do not present this fragmentation | CC1(C)[C@@H](O[C@H]2O[C@H](C(=O)O)[C@@H](O)[C@H](O)[C@H]2O[C@@H]2O[C@H](C(=O)O)[C@@H](O)[C@H](O)[C@H]2O)CC[C@]2(C)[C@H]3C(=O)C=C4[C@@H]5C[C@@](C)(C(=O)O)CC[C@]5(C)CC[C@@]4(C)[C@]3(C)CC[C@@H]12 [GA, Glycyrrhizic acid] | minor effect | no effect | minor effect | do not present this fragmentation | 50% | – | – | – | –
2 | – | CC1(C)[C@@H](O)CC[C@]2(C)[C@H]3C(=O)C=C4[C@@H]5C[C@@](C)(C(=O)O)CC[C@]5(C)CC[C@@]4(C)[C@]3(C)CC[C@@H]12 [Example 18β-GA, 18β-glycyrrhetinic acid] | greater effect than GA | greater effect than GA | greater effect than GA | considerable DNA fragmentation | – | much less fragmentation | 6.574 | insoluble in water | up to 99%
